Here are results for 8 compounds from ChEMBL document CHEMBL5038581, “Design, synthesis, and biological evaluation of novel dual inhibitors targeting lysine specific demethylase 1 (LSD1) and histone deacetylases (HDAC) for treatment of gastric cancer” (Eur J Med Chem, 2021).

For one data set, the target named is CYP2C9 (Homo sapiens, UniProt P11712). The data set can be described thus: in vitro. To be noted: probe diclofenac.
The target in another data set is CYP3A4 (Homo sapiens, UniProt P08684). The data set can be described thus: in vitro. To be noted: probe testosterone.
Sequence of CYP3A4 (P08684 whole entry): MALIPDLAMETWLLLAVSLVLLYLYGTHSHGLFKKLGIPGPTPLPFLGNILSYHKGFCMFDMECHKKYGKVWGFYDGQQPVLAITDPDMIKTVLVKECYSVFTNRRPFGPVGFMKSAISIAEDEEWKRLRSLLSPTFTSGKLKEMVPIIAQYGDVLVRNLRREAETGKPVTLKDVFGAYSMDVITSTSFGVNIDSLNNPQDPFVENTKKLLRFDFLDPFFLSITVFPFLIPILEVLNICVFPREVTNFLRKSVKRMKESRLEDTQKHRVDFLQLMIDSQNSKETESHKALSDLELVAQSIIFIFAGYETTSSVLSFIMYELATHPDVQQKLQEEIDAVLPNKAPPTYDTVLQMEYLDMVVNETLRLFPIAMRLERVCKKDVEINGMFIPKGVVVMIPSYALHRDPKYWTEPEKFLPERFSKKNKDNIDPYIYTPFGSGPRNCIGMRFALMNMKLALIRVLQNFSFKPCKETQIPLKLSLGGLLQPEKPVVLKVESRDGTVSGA
A further data set deals with CYP2D6 (Homo sapiens, UniProt P10635). As to the kind of experiment: in vitro. The settings on record: probe dextromethorphan.
Sequence of CYP2D6 (P10635 whole entry): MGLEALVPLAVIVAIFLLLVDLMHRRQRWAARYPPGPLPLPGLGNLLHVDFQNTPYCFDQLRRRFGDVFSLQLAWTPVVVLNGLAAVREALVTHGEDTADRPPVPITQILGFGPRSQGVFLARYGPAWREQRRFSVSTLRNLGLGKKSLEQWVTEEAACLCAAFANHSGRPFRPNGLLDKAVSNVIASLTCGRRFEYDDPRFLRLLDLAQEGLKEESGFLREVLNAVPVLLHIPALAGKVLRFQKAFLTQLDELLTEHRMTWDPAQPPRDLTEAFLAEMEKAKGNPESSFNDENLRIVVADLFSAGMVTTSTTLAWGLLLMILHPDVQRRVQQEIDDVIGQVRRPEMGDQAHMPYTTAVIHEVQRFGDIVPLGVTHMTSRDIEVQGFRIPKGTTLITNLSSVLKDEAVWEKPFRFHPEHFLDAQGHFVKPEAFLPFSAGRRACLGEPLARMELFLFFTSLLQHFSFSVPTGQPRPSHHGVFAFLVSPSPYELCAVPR
Another data set concerns HCT-116. The data set can be described thus: cells. The settings on record: Homo sapiens, HCT-116, 72 h.
In data set [1] the target is T1, Protein deacetylase HDAC6 (Homo sapiens, UniProt Q9UBN7).
T1 sequence (Q9UBN7 whole entry): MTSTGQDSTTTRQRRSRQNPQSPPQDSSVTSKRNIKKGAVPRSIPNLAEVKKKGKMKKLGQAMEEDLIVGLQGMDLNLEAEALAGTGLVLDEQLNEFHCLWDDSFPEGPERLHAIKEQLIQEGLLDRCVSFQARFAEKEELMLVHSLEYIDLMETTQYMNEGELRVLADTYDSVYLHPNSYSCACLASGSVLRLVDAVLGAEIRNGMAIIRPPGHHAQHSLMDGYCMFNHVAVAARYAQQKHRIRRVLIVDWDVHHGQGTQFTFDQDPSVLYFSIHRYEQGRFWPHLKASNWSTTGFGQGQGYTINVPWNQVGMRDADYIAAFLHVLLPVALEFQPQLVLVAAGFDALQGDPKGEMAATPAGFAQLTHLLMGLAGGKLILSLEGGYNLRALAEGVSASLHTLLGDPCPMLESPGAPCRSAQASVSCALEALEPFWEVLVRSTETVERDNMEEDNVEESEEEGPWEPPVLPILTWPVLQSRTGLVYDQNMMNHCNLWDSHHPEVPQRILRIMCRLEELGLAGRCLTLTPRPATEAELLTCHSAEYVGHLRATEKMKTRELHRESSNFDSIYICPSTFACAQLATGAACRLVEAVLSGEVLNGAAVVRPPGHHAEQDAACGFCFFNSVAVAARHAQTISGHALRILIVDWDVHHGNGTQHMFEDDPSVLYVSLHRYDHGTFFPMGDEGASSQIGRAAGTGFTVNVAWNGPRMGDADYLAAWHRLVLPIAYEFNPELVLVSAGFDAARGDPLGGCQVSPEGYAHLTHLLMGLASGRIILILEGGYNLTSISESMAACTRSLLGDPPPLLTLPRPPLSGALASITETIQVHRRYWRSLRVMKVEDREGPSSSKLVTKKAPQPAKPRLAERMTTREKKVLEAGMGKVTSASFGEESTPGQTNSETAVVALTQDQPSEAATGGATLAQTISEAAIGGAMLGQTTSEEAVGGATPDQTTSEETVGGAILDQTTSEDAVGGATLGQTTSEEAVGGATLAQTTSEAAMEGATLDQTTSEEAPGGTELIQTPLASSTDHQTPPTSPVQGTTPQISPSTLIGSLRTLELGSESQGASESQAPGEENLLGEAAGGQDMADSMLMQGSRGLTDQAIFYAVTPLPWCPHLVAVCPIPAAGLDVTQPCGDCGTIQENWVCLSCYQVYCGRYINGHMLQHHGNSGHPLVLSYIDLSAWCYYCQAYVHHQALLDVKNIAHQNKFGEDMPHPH
As to the kind of experiment: Inhibition of HDAC6 (unknown origin) using Ac-peptide as substrate preincubated for 15 mins followed by substrate addition by fluorescence assay.

Data set [2] relates to MGC-803. The data set can be described thus: cells. To be noted: Homo sapiens, MGC-803, 72 h.
A further data set concerns the target Histone deacetylase 5 (Homo sapiens, UniProt Q9UQL6). As to the kind of experiment: Inhibition of HDAC5 (unknown origin) using Ac-peptide as substrate preincubated for 15 mins followed by substrate addition by fluorescence assay.
The next data set addresses Histone deacetylase 1 (Homo sapiens, UniProt Q13547). As to the kind of experiment: Inhibition of HDAC1 (unknown origin) using Ac-peptide as substrate preincubated for 15 mins followed by substrate addition by fluorescence assay.
Another data set concerns the target Histone deacetylase 2 (Homo sapiens, UniProt Q92769).
For another data set, the target named is T2, CYP1A2 (Homo sapiens, UniProt P05177).
T2 sequence (P05177 whole entry): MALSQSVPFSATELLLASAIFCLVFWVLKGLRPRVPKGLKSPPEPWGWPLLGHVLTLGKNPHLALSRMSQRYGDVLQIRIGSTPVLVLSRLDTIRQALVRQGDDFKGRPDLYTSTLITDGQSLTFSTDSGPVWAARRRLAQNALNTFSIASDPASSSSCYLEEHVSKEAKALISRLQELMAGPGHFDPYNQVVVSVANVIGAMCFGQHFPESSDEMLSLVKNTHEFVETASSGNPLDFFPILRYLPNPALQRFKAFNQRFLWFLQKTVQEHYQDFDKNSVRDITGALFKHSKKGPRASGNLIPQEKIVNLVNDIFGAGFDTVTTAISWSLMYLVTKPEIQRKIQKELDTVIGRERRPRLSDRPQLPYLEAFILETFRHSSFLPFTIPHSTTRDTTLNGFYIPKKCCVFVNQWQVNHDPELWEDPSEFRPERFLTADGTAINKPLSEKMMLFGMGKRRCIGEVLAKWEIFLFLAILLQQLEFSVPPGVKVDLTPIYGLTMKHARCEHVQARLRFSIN
As to the kind of experiment: in vitro. The settings on record: probe phenacetin.

For data set [3], the system named is MGC-803. The data set can be described thus: Induction of apoptosis in human MGC-803 cells assessed as apoptotic cells at 5 uM incubated for 48 hrs by annexin V-FITC and PI staining based flowcytometry analysis (Rvb =4.3 %). Format: functional.
The test system of data set [4] is MGC-803. The data set can be described thus: Antiproliferative activity against human MGC-803 cells assessed as reduction in cell viability at 10 uM after 72 hrs by CellTiter-Glo assay. Type of data set: functional. For orientation: ATP-based viability assays read luminescence as a measure of living cells.
The target in data set [5] is Lysine-specific histone demethylase 1A (Homo sapiens, UniProt O60341). As to the kind of experiment: Inhibition of recombinant LSD1 (157 to 852 residues) (unknown origin) expressed in Escherichia coli BL21 (DE) using H3K4me2 as substrate by amplex red assay.

Sequence of Histone deacetylase 1 (Q13547 whole entry): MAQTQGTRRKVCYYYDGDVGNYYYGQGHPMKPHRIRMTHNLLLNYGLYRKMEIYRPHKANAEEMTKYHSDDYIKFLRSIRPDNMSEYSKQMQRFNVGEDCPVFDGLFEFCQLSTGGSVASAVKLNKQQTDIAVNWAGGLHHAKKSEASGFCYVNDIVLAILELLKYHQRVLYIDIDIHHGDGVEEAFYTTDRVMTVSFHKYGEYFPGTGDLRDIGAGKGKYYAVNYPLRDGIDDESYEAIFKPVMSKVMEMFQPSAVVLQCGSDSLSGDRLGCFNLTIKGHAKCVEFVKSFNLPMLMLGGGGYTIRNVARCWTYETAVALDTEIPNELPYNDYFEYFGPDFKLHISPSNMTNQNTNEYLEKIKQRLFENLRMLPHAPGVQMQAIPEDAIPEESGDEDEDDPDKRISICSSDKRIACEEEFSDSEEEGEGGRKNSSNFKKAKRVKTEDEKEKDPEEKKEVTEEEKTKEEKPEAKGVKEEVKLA
Sequence of Histone deacetylase 5 (Q9UQL6 whole entry): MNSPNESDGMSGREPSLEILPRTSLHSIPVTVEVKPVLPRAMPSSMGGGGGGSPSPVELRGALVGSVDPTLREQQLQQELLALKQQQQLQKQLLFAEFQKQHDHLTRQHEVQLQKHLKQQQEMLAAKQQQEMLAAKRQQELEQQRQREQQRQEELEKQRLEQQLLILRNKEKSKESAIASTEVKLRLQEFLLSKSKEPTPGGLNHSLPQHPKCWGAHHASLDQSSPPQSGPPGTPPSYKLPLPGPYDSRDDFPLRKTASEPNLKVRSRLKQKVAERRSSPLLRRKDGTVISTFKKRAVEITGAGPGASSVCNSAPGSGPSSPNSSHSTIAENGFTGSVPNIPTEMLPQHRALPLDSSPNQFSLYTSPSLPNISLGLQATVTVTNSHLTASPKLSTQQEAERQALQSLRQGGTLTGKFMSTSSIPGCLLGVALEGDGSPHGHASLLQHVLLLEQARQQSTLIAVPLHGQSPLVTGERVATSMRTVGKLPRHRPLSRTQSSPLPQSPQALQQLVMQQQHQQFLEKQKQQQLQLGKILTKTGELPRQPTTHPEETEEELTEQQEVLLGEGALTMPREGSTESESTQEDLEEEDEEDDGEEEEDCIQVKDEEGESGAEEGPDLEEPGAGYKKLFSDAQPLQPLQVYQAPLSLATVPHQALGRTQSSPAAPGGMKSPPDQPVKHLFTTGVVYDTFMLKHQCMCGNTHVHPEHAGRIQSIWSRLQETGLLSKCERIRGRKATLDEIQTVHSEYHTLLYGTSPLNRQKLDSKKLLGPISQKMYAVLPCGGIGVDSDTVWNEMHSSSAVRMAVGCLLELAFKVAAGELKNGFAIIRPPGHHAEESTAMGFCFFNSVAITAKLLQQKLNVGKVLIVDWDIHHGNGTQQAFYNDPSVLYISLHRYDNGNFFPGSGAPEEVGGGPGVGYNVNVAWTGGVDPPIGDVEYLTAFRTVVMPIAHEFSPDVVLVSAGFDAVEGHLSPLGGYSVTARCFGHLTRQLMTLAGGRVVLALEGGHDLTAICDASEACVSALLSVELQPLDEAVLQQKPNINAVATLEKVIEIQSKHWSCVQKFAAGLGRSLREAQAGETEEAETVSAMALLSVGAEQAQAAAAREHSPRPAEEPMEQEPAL
Sequence of Histone deacetylase 2 (Q92769 whole entry): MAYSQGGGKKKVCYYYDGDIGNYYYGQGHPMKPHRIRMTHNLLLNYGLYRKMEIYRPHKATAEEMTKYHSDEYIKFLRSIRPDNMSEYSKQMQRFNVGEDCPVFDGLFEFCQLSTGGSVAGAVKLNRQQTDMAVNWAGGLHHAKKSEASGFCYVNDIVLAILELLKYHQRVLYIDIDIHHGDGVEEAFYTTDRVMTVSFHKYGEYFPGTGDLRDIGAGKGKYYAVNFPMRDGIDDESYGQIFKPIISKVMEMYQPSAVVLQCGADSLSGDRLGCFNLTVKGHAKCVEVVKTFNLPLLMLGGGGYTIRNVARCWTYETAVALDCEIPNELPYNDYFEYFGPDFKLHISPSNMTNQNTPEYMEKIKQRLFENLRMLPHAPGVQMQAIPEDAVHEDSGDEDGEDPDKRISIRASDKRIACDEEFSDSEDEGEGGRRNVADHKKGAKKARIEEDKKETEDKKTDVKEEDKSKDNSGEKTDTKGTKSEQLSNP
Sequence of CYP2C9 (P11712 whole entry): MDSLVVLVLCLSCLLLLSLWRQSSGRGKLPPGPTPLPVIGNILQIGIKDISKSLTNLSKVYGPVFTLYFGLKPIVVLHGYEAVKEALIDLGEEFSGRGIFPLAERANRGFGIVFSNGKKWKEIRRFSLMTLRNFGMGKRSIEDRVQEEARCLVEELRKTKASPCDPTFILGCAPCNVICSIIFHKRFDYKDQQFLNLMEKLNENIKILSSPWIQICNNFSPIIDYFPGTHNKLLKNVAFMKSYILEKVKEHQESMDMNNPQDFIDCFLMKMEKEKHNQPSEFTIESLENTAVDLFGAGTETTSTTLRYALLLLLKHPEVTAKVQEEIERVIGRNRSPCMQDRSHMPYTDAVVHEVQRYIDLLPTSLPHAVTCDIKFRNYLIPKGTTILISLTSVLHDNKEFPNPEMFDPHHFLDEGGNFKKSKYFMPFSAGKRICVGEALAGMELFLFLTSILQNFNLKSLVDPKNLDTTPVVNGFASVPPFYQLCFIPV

In general, inhibition refers to the share of the control response that was lost under treatment. For the compound `Nc1ccc(S(=O)(=O)Nc2ccnn2-c2ccccc2)cc1` [SULFAPHENAZOLE], the inhibition at 1 µM at CYP2C9 was 79.9%.
`CC(=O)N1CCN(c2ccc(OCC3COC(Cn4ccnc4)(c4ccc(Cl)cc4Cl)O3)cc2)CC1` (stereo unspecified) [KETOCONAZOLE] showed an inhibition at 0.1 µM on CYP3A4 of 65.9%.
For the compound `C=C[C@H]1C[N@@]2CC[C@H]1C[C@@H]2[C@@H](O)c1ccnc2ccc(OC)cc12` [QUINIDINE], the inhibition at 1 µM against CYP2D6 amounted to 91.3%.
Usually IC50 stands for the point on the concentration scale where inhibition reaches its midpoint. For the compound `O=C(NO)c1cccc(/C=C/c2ccnc(-c3cc(F)ccc3O)c2)c1`, the half-inhibitory concentration (IC50) with HCT-116 was 3.89 µM; in data set [1], 0.4 µM; in the data set with MGC-803 [2] it was 2.71 µM; at Histone deacetylase 5 it was more than 10 µM; on Histone deacetylase 1, 1.51 µM; against Histone deacetylase 2, 2.06 µM.
In the case of `O=c1cc(-c2ccccc2)oc2c1ccc1ccccc12` [ALPHA-NAPHTHOFLAVONE], at CYP1A2, the inhibition at 0.2 µM stood at 90.9%.
Turning to `O=C(CCCCCCC(=O)Nc1ccccc1)NO` [VORINOSTAT], the Activity with MGC-803 [3] amounted to 73.8%. For the same compound, the IC50 came out at 1.85 µM in the data set on HCT-116 and 1.54 µM with MGC-803 [2].
Consider `N/C(=N\O)c1cccc(/C=C/c2ccnc(-c3cc(F)ccc3O)c2)c1`, for which the inhibition at 10 µM in the data set with MGC-803 [4] was determined as 35.3%.
Regarding `O=C(NO)c1cccc(/C=C/c2ccnc(-c3ccccc3O)c2)c1`, the concentration for half-maximal inhibition (IC50) in the data set with HCT-116 is 3.36 µM; in data set [1] it was 0.39 µM; in the data set with MGC-803 [2] it was 2.81 µM; against Histone deacetylase 5, more than 10 µM; against Histone deacetylase 1 it was 1.47 µM; in data set [5], 2.26 µM. In addition, the 50% inhibitory concentration (IC50) against Histone deacetylase 2 was determined as 1.87 µM.
